This note sets out measurements from US7829728B2, “Diarymethyl and related compounds” (Theravance, Inc., priority 2003, dated 2010).

The target of assay [1] is T1, human β2 adrenergic receptor (Homo sapiens, UniProt P07550). The assay is described as follows: Radioligand binding assay for human β2 adrenergic receptor (Assay Test Procedure A). On the set-up: expressed in transfected cells; host or cells: CHO cells, membranes. The settings on record: receptor subtype selectivity, human β1 versus β2. How it is done:
Chinese hamster ovarian (CHO) cell lines stably expressing cloned human β1, β2 or β3 adrenergic receptors, respectively, were grown to near con fluency in Hams F-12 media with 10% FBS in the presence of 500 μg/mL Geneticin. The cell monolayer was lifted with 2 mM EDTA in PBS. Cells were pelleted by centrifugation at 1,000 rpm, and cell pellets were either stored frozen at −80° C. or membranes were prepared immediately for use. For preparation of β1 and β2 receptor expressing membranes, cell pellets were re-suspended in lysis buffer (10 mM HEPES/HCl, 10 mM EDTA, pH 7.4 at 4° C.) and homogenized using a tight-fitting Dounce glass homogenizer (30 strokes) on ice. […] The protein concentration of the membrane suspension was determined by the methods described in Lowry et al., 1951, Journal of Biological Chemistry, 193, 265; and Bradford, Analytical Biochemistry, 1976, 72, 248-54. […]
Binding assays were performed in 96-well microtiter plates in a total assay volume of 100 μL with 10-15 μg of membrane protein containing the human β1, β2 or β3 adrenergic receptors in assay buffer (75 mM Tris/HCl pH 7.4 at 25° C., 12.5 mM MgCl2, 1 mM EDTA, 0.2% BSA). […] Non-specific binding was determined in the presence of 10 μM propranolol. […] Filter plates were washed three times with filtration buffer (75 mM Tris/HCl pH 7.4 at 4° C., 12.5 mM MgCl2, 1 mM EDTA) to remove unbound radioactivity. […]

The target in assay [2] is T1, human β2 adrenergic receptor. Put plainly: Whole-cell cAMP Flashplate assay with a lung epithelial cell line (BEAS-2B) endogenously expressing human β2 adrenergic receptor (Assay Test Procedure E). It is filed as cell-based. To be noted: BEAS-2B human lung epithelial cells, endogenous receptor. How it is done: For the determination of agonist potencies and efficacies (intrinsic activities) in a cell line expressing endogenous levels of the β2 adrenergic receptor, a human lung epithelial cell line (BEAS-2B) was used (ATCC CRL-9609, American Type Culture Collection, Manassas, Va.) (January B, et al., British Journal of Pharmacology, 1998, 123, 4, 701-11). Cells were grown to 75-90% confluency in complete, serum-free medium (LHC-9 MEDIUM containing Epinephrine and Retinoic Acid, cat #181-500, Biosource International, Camarillo, Calif.). […] On the day of the assay, cells were rinsed with PBS, lifted by scraping with 5 mM EDTA in PBS, and counted. […] Plates were sealed, incubated over night at 4° C. and counted the next morning in a Topcount scintillation counter (Packard BioScience Co., Meriden, Conn.). The amount of cAMP produced per mL of reaction was calculated based on the counts observed for samples and cAMP standards, as described in the manufacturer's user manual. Data were analyzed by nonlinear regression analysis with the GraphPad Prism Software package (GraphPad Software, Inc., San Diego, Calif.) using the 4-parameter model for sigmoidal dose-response. […]

T1 sequence (P07550 whole entry): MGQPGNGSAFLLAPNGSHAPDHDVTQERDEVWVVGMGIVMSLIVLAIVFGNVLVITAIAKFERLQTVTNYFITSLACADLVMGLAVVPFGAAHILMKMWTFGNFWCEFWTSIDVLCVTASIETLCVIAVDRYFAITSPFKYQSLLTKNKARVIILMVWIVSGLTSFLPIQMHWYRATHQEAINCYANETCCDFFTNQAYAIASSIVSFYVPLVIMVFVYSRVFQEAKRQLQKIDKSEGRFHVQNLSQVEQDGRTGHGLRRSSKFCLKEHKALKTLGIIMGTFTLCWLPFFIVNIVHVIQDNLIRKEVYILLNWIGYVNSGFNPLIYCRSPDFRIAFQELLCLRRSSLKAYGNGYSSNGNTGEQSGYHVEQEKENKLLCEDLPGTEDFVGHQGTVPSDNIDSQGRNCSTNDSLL

The EC50 is the concentration at which the effect is half-maximal. Higher therefore signals weaker potency. As to `NC(=O)C(c1ccccc1)(c1ccccc1)[C@@H]1CCN(CCCCCCCCCNCC(O)c2ccc(O)c3[nH]c(=O)ccc23)C1` (mixture of isomers) [Example 1, 2-((S)-1-{9-[2-Hydroxy-2-(8-hydroxy-2-oxo-1,2-dihydroquinolin-5-yl)ethylamino]-nonyl}pyrrolidin-3-yl)-2,2-diphenylacetamide], in assay [1], the “ratio of Ki(β1)/Ki(β2)” value was “greater than 8”. Besides, the concentration for a half-maximal effect (EC50) in assay [2] was < 10 nM.
